Experimental data published in patent US20240327339A1, “COMPOSITIONS AND METHODS FOR TREATING AND PREVENTING VIRAL INFECTIONS” (priority 2021, published 2024).
In brackets after ≈: the same amount, converted by molar mass. Entries after “also recorded” stand apart in the source; their conditions may differ. Where two headings read alike, the source gives them in different places.

Assays:
RSV A2 [1] = experiment: In vitro probenecid inhibition assay, RSV A2 (plaque assay); format: cell-based, respiratory syncytial virus (RSV); conditions: for IC50 / IC90: human respiratory syncytial virus; for virus replication compared to control (DMSO only): Vero E6, HEp-2 and NHBE cells
RSV B1 = experiment: In vitro probenecid inhibition assay, RSV B1 (plaque assay); format: cell-based, respiratory syncytial virus (RSV); conditions: for IC50 / IC90: human respiratory syncytial virus; for IC90: up to 100 μM; for virus replication compared to control (DMSO only): Vero E6, HEp-2 and NHBE cells
Memphis-37 = experiment: In vitro probenecid inhibition assay, Memphis-37 (plaque assay); format: cell-based, human RSV strain A; conditions: for IC50 / IC90: human respiratory syncytial virus; for virus replication compared to control (DMSO only): Vero E6, HEp-2 and NHBE cells
RSV A2 [2] = experiment: In vivo inhibition study, BALB/c mouse model of RSV infection; parameters: species or system BALB/c mice; conditions: 2 or 200 mg/kg i.p., 24 h before or 24 h after infection, days 3, 5, 7 pi
Mumps (Jones) virus = experiment: Mumps assay in Vero-P cells; format: cell-based; conditions: MOI=0.1, FIG. 10
Source text: (§1) Experiments Conducted in Vero-P Cells.

Zika (MR766) virus = experiment: Zika assay in Vero-P cells; format: cell-based; conditions: MOI=0.1, FIG. 11
Source text: as §1

influenza virus = experiment: Influenza assays in A549 cells; format: cell-based
Description: Experiment Conducted in A549 Cells.
[…] with influenza virus (MOI=0.1) for 1 hour
The virus is plaqued in MDCK cells while studies are carried out in human respiratory epithelial cells.

Measles virus [3] = experiment: Measles virus syncytia immunostaining; format: cell-based
Description: (§2) Plate 4×10^4/well of Vero-E6 or Hep-2 cells to be 95-100% confluent the next day. The next day make fresh dilutions of Probenecid were made. From a stock concentration of 10 mM in 100% DMSO, dilutions were made with half DMSO and half DMEM with 4% BSA fraction. FBS inhibits some viruses. Media was decanted and dilutions of probenecid were added to cells. Controls: DMSO/Media mixture, Media with no Probenecid, Media with no virus. Probenecid dilutions were left on cells for 24 hrs. After 24 hrs, media was decanted and virus was added (MOI=0.01/well). Virus was diluted to MOI=0.01 per 100 uL with DMEM. Left virus inoculum on cells for 1 hr. After 1 hr, infection media was decanted and replaced with dilutions of Probenecid. For Immunostaining, plates were left for 24 hrs before fixing cells. For Plaque Assays, plates were left for 72 hrs before freezing at −80 C.
The immunostaining protocol generally included fixing cells with 4% formaldehyde in PBS (50 uL) for 15-20 min at room temp, rinsing cells 3× with PBS (100 uL), and optionally storing cells at 4° C. in PBS until ready to stain. Permeabilizing cells with 0.05% TritonX-100 in PBS (100 uL) for 10 min at room temp, rinsing cells 3× with PBS (100 uL), blocking with 3% BSA-PBS (100 uL) for 1 hr at 37° C. or overnight at 4° C. Blocking solution was removed and cells were incubated with primary antibody (mouse mAb uNP, Millipore MAB8906) at 1:10,000 dilution (100 uL) for 1 hour (antibody diluted in 3% BSA-PBS). Cells were washed 3× with KPL Buffer (100 uL), incubated for 45 min with secondary antibody (Goat uMouse conjugated with Alex flour 488) in the dark at 37° C. (antibody diluted in 3% BSA-PBS). Cells were washed 3× with KPL Buffer in the dark (100 uL), rapidly stained with DAPI (1 ug/mL) for 10 min in the dark, washed 3× with PBS in the dark and stored in 200 ul of PBS until visualization.
Experiments were designed to test the prophylactic effect of probenecid on measles virus infection. Cells were infected with measle virus with, or without, probenecid treatment and immunostained for syncytia. […]

Measles virus [4] = experiment: Measles virus plaque assay; format: cell-based; conditions: HEp2 and Vero cells treated before infection; MOI=0.01; 72 hours
Description: as §2
For plaque assays of probenecid treated cells, cells were treated with various concentrations of Probenecid before being infected with Measles virus (MOI=0.01). After 72 hours, cells were frozen until plaque assay. Plaque concentrations are recorded as log 10 PFU/mL.

A/WSN/33 (H1N1) [5] = experiment: A/WSN/33 (H1N1) IC50 (Perwitasari et al.); format: cell-based; conditions: Influenza A virus; converted from 0.5 nM
[6] = Preliminary virology data used for pediatric simulations; conditions: virus not stated
Description: Simulations were also conducted in pediatric subjects. Allometric scaling based on body weights used as an empirical approach to predict concentrations in pediatric subjects. 10 mg/kg qd, 10 mg/kg bid, 20 mg/kg qd, 20 mg/kg bid dose was simulated. IC50 from preliminary virology data is 1 nM.

hMPV CAN83 (A2 strain) = experiment: hMPV challenge of BALB/c mice; format: in vivo; conditions: 24 h prior to or 24 h post infection; lungs 5 dpi; FIGS. 26A-26B
Description: BALB/c mice were prophylactically (24 h prior to) or post-infection (24 h post) (“treatment”) treated with probenecid at the indicated concentrations. Mice (n=5/sex/group) were challenged i.n. with 1e6 PFU hMPV CAN83 (A2 strain). Lungs were collected 5 dpi and a plaque assay performed. The results are illustrated in FIGS. 26A-26B.

[7] = system: adenovirus serotype 5 (Ad5); experiment: Ad5 infection of A549 cells; format: cell-based; conditions: only limited conditions tested
SARS-CoV-2 [8] = conditions: 90% inhibition of COVID-19 viral replication; Investigator Brochure; read-out: IC90 level; cited from earlier work
A/WSN/33 (H1N1) [9] = conditions: Perwitasari et al. 2013; cited from earlier work
SARS-CoV-2 [10] = conditions: cited from earlier work
SARS-CoV-2 [11] = conditions: ten non-hospitalized patients, mild to moderate infection; 28 day; cited from earlier work
[12] = in vivo, cited from earlier work
E. coli = experiment: Killing of free bacteria
Dengue Type 1 virus = experiment: Dengue assay in Vero-P cells; conditions: MOI=0.1, FIG. 12
Burkholderia = experiment: Bacterial replication in macrophage; conditions: macrophage-associated bacteria
[13] = system: SLC22A8 (OAT3) transcripts; experiment: OAT3 expression in HEp-2 cells (qPCR); conditions: HEp-2 cells treated with IC90 of probenecid [7.2 uM] for 24 h
SARS-CoV-2 [14] = experiment: SARS-CoV-2 IC90 (Investigator Brochure); conditions: Severe acute respiratory syndrome coronavirus 2, read-out: IC90 level corrected for 95% protein binding
RSV = conditions: cited from earlier work
[15] = Vero C1008, Prophylaxis (24 h before infection), Vero E6 cells
[16] = Vero C1008, Treatment (24 h after infection), Vero E6 cells
[17] = Prophylaxis (24 h before infection), HEp-2 cells
[18] = Prophylaxis (24 h before infection), NHBE cells
[19] = Treatment (24 h after infection), HEp-2 cells
[20] = Treatment (24 h after infection), NHBE cells

CCCN(CCC)S(=O)(=O)c1ccc(C(=O)O)cc1 [Probenecid, 4-[(dipropylamino)sulfonyl] benzoic acid]
IC50 (RSV A2 [1]; [15]): 70 nM
IC90 (RSV A2 [1]; [15]): 630 nM
IC50 (RSV A2 [1]; [16]): 100 nM
IC90 (RSV A2 [1]; [16]): 2700 nM
IC50 (RSV A2 [1]; [17]): 800 nM
IC90 (RSV A2 [1]; [17]): 7200 nM
IC50 (RSV A2 [1]; [18]): 400 nM
IC90 (RSV A2 [1]; [18]): 3600 nM
IC50 (RSV A2 [1]; [19]): 1200 nM
IC90 (RSV A2 [1]; [19]): 10800 nM
IC50 (RSV A2 [1]; [20]): 300 nM
IC90 (RSV A2 [1]; [20]): 2700 nM
virus replication compared to control (DMSO only) (RSV A2 [1]; prophylaxis 24 h before RSV A2 infection, FIG. 1): significantly (**** p<0.0001) inhibited the virus replication
virus replication compared to control (DMSO only) (RSV A2 [1]; treated 24 h after RSV A2 infection, FIG. 2): significantly (**** p<0.0001) inhibited the virus replication
IC50 (RSV B1; [15]): 850 nM
IC90 (RSV B1; [15]): > 100000 nM
IC50 (RSV B1; [16]): 2000 nM
IC90 (RSV B1; [16]): > 100000 nM
IC50 (RSV B1; [17]): 800 nM
IC90 (RSV B1; [17]): > 100000 nM
IC50 (RSV B1; [18]): 800 nM
IC90 (RSV B1; [18]): > 100000 nM
IC50 (RSV B1; [19]): 900 nM
IC90 (RSV B1; [19]): > 100000 nM
IC50 (RSV B1; [20]): 1200 nM
IC90 (RSV B1; [20]): > 100000 nM
virus replication compared to control (DMSO only) (RSV B1; prophylaxis 24 h before RSV B1 infection, FIG. 3): significantly (**** p<0.0001) inhibited the virus replication
virus replication compared to control (DMSO only) (RSV B1; treated 24 h after RSV B1 infection, FIG. 4): significantly (**** p<0.0001) inhibited the virus replication
IC50 (Memphis-37; [15]): 30 nM
IC90 (Memphis-37; [15]): 270 nM
IC50 (Memphis-37; [16]): 400 nM
IC90 (Memphis-37; [16]): 3600 nM
IC50 (Memphis-37; [17]): 40 nM
IC90 (Memphis-37; [17]): 360 nM
IC50 (Memphis-37; [18]): 160 nM
IC90 (Memphis-37; [18]): 1440 nM
IC50 (Memphis-37; [19]): 500 nM
IC90 (Memphis-37; [19]): 4500 nM
IC50 (Memphis-37; [20]): 200 nM
IC90 (Memphis-37; [20]): 1800 nM
virus replication compared to control (DMSO only) (Memphis-37; prophylaxis 24 h before Memphis-37 infection, FIG. 5): significantly (**** p<0.0001) inhibited the virus replication
virus replication compared to control (DMSO only) (Memphis-37; treated 24 h after Memphis-37 infection, FIG. 6): significantly (**** p<0.0001) inhibited the virus replication
lung virus titers compared to control (PBS) (RSV A2 [2]; female BALB/c mice): significantly (p<0.0001) reduced lung virus titer; also recorded: significant (**** p<0.0001) reduction in lung viral titers
lung virus titers compared to control (PBS) (RSV A2 [2]; male BALB/c mice): significantly (p<0.0001) reduced lung virus titer; also recorded: significant (**** p<0.0001) reduction in lung viral titers
inhibition of virus replication (Mumps (Jones) virus): picomolar levels of probenecid were effective at inhibiting virus replication
inhibition of virus replication (Zika (MR766) virus): picomolar levels of probenecid were effective at inhibiting virus replication
IC50 for flu (influenza virus): in the picomolar range
syncytia per well (Measles virus [3]; 1 uM Probenecid, 24 hrs, NP fluorescence stain): no syncytia were detected
concentration also effective on MeV (Measles virus [3]; Hep-2 cells, other assays): 0.03 UM
IC50 (Measles virus [3]; Measles morbillivirus, probenecid dilution assay, FIG. 14A, read-out: IC50 (average syncytia per well)): 0.8 nM
plaque titers (Measles virus [4]): below the limit of detection
IC50 (A/WSN/33 (H1N1) [5]): 0.000143 µg/mL (≈ 0.000501 µM)
IC50 [6]: 1 nM
effect on hMPV infection (lung plaque assay) (hMPV CAN83 (A2 strain)): Prophylactically and Therapeutically Reduces Human Metapneumovirus (HMPV) Infection
effect on infection [7]: did not statistically significantly reduce infection
IC90 (SARS-CoV-2 [8]): 364 nM
IC50 (A/WSN/33 (H1N1) [9]): 0.5 nM
efficacy at treating SARS-CoV-2 (SARS-CoV-2 [10]; hamsters, 2 mg/kg and 200 mg/kg): both effective at treating SARS-CoV-2 in hamsters in vivo
effect on virus replication and inflammatory response (SARS-CoV-2 [10]; in vitro and pre-clinical hamster studies (WO 2021/207606)): block replication of the SARS-CoV-2 virus and the associated acute inflammatory response to the infection
patient symptoms (SARS-CoV-2 [11]): patient symptoms showed improvement
absorption ([12]; po): completely absorbed after oral administration
time to peak plasma concentration ([12]; po): 2 to 4 h
half life [12]: 6 to 12 h
half-life in plasma [12]: less than 5 hr to more than 8 hr
killing of bacteria (E. coli): did not kill bacteria
inhibition of virus replication (Dengue Type 1 virus): picomolar levels of probenecid were effective at inhibiting virus replication
killing of bacteria (Burkholderia): did not kill bacteria
OAT3 Raw Ct Value [13]: undetectable levels of OAT3 transcripts; also recorded: No Ct
IC90 (SARS-CoV-2 [14]): 2.08 µg/mL (≈ 7.29 µM)

NC(=O)c1ncn([C@@H]2O[C@H](CO)[C@@H](O)[C@H]2O)n1 [Ribavirin]
therapeutic results (RSV; inhaled): mixed-to-poor results

palivizumab: a humanized monoclonal antibody targeting the F protein
reduction of hospitalizations (RSV; treated high-risk infants, monthly administration): approximately 50%
